From the CATMoS acute toxicity set (Mansouri et al. 2021)
“And” between values parts separate entries of the source, which are not always exact repeats. Equal values may be shown once.

Experiment: rat acute oral toxicity
Conditions: in vivo
Description: […]The data set underlying the modeling effort for this project was initially compiled by NICEATM and U.S. EPA’s CCTE. Briefly, LD50 data were collected from rat acute oral systemic toxicity tests, including limit tests, ranges/confidence intervals, and discrete LD50 values. The full data set included 21,200 LD50 entries for 15,688 substances. […] Data were reviewed to ensure that LD50 values with obvious errors in the extracted data such as unit conversion errors (e.g., comma and decimal separator misplacements) were either fixed or removed. After this review, 16,209 LD50 values remained. Many of the chemicals represented had multiple LD50 entries, requiring that a single representative value per Chemical Abstracts Service Registry Number (CASRN) identifier be defined to facilitate modeling efforts. Based on ATWG feedback and to define the representative LD50 as a protective value while accounting for the distribution across multiple LD50s, the median of the lowest quartile was computed using only discrete LD50 values (omitting limit test data and range and confidence interval data). A detailed summary of the data compilation is available online on the NICEATM webpage dedicated to the collaborative modeling project (NTP 2020).
[…][…] For categorical designations, limit test and range/confidence interval LD50 data were integrated wherever possible. As such, the number of chemicals with end point values/calls varies across the modeling end points (Table 3) based on whether chemicals had representative LD50 values and/or other data. If a chemical had both, the representative value was used to determine categorical calls rather than limit test data. Some data were useable only for certain end points and categories depending on the thresholds. For example, ranges that spanned multiple hazard categories were considered only for the binary (very toxic/nontoxic) end points and omitted from rendering a determination for hazard category assignment.
[…]The final data set comprising 11,992 chemicals was split into training and evaluation sets […], respectively. This process was performed semirandomly by ordering chemicals based on the five end points (categorical and continuous LD50 values) and partitioning every fourth record into the evaluation set accordingly. This approach was taken to ensure an equivalent distribution of the LD50 values and the different hazard categories between the training and the evaluation sets without supervised sampling of the chemicals based on structures (Figure 1A). The sources of the chemical structures were also kept equivalent between the two sets, with chemical structures obtained from DSSTox, being the highest quality, representing over 75% of each set (Figure 1B).

Compound | LD50
CC(C)C(Nc1ccc(C(F)(F)F)cc1Cl)C(=O)OC(C#N)c1cccc(Oc2ccccc2)c1 (stereo not drawn) | 261 mg/kg
O=C=Nc1ccc(OC(F)(F)F)cc1 | 1520 mg/kg
CC(C)CO | 2460 mg/kg
O=C(O)C1CCC(C(=O)O)CC1 (stereo not drawn) | 1900 mg/kg
CCOP(c1ccccc1)c1ccccc1 | 316 mg/kg
O=C(O)c1ccc2cc(O)ccc2c1 | 947 mg/kg
CN(C)c1nc(=O)n(C2CCCCC2)c(=O)n1C | 1200 mg/kg
COP(=S)(OC)Oc1nc(Cl)c(Cl)cc1Cl | 1500 mg/kg
CC1(C)C(C=C(Cl)Cl)C1C(=O)OC(C#N)c1ccc(F)c(Oc2ccccc2)c1 (stereo not drawn) | 270 mg/kg
CCCN(CCC)CCC | 72.5 mg/kg
c1ccc(CNc2[nH]cnc3ncnc2-3)cc1 | 1300 mg/kg
N=C(Nc1ccccc1)Nc1ccccc1 | 107 mg/kg
CCN(C)C | 594 mg/kg
CCON=C(CC)C1=C(O)CC(c2c(C)cc(C)cc2C)CC1=O (stereo not drawn) | 934 mg/kg
CNC(=O)ON=C(SC)C(=O)N(C)C | 2.5 mg/kg
CC(=O)Oc1ccc(C(c2ccc(OC(C)=O)cc2)c2ccccn2)cc1 | 4300 mg/kg
CCN(CC)CCNC(=O)c1ccc(N)cc1 | 1510 mg/kg
C=CCOC(=O)C(=C)C | 70 mg/kg
C=CC(=O)NC(C)(C)CS(=O)(=O)O | 1830 mg/kg
CC(=O)N[C@@H](CS)C(=O)O | 3000 mg/kg
OCCOCCO | 12600 mg/kg
Sc1ccccc1 | 46 mg/kg
NCCCOCCOCCOCCCN | 2850 mg/kg
CC(C)c1nn(C(=O)NC(C)(C)C)c(=O)n1N | 1020 mg/kg
CN(C)c1ccccc1 | 951 mg/kg

Compound | LD50
ClC(Cl)Br | 916 mg/kg
CSc1ccc(C(=O)C(C)(C)N2CCOCC2)cc1 | 1460 mg/kg
OCCOCCOc1ccccc1 | 2140 mg/kg
O=c1[nH]c(=O)n(Cl)c(=O)n1Cl | 1170 mg/kg and 1420 mg/kg
O=C(O)c1ccccc1C(=O)Nc1cccc2ccccc12 | 1770 mg/kg
CC(O)CN(CCCN(C)C)CCCN(C)C (stereo not drawn) | 1330 mg/kg
CC(C)(C)CC(C)(C)N | 218 mg/kg
CCC(C)=NO | 930 mg/kg
CC1(C)COCN1 | 950 mg/kg
CCCC1CC(C)(OC(C)=O)CCO1 (stereo not drawn) | 4300 mg/kg
CCOC=O | 1850 mg/kg
CNC1=Nc2ccc(Cl)cc2C(c2ccccc2)=[N+]([O-])C1 | 392 mg/kg
COP(=S)(OC)SCc1nc(N)nc(N)n1 | 890 mg/kg
CC(C)OC(=O)Nc1ccccc1 | 1000 mg/kg
COc1ccccc1NC(=O)CC(C)=O | 1600 mg/kg
CN=C=O | 51.5 mg/kg
CC(C)CCCCCOC(=O)c1ccccc1C(=O)OCCCCCC(C)C | 22000 mg/kg
Oc1ccc(Cl)cc1Cl | 47 mg/kg
CCCCN(C)C | 184 mg/kg
CCC(N)CO (stereo not drawn) | 800 mg/kg
COCCOCCOC | 4760 mg/kg
O=C(O)C1C2CCC(O2)C1C(=O)O (stereo not drawn) | 38 mg/kg
O=C1C=CC(=O)N1c1ccccc1 | 128 mg/kg
CCCCCC(=O)O | 3000 mg/kg
ClC1=C(Cl)C2(Cl)C3C(Cl)C(Cl)CC3C1(Cl)C2(Cl)Cl (stereo not drawn) | 200 mg/kg

Compound | LD50
O=C(Cl)c1ccccc1 | 2460 mg/kg
O=S(=O)(C(Cl)(Cl)Cl)C(Cl)(Cl)Cl | 535 mg/kg
CON(C)C(=O)Nc1ccc(Cl)c(Cl)c1 | 1150 mg/kg
O=C(OCCOCCOC(=O)c1ccccc1)c1ccccc1 | 2830 mg/kg
CCCCCC(C)OC(=O)COc1ccc(Cl)c2cccnc12 (stereo not drawn) | 1100 mg/kg
O=[N+]([O-])/N=C1\NCCN1Cc1ccc(Cl)nc1 | 410 mg/kg
CCCCOC(=O)C(C)Oc1ccc(Oc2ccc(C(F)(F)F)cn2)cc1 (stereo not drawn) | 2910 mg/kg
CCCCN | 366 mg/kg
Cc1cc(O)ccc1Cl | 1830 mg/kg
CC(O)COCC(C)O (stereo not drawn) | 14800 mg/kg
COc1ccc(C(=CC(=O)N2CCOCC2)c2ccc(Cl)cc2)cc1OC | 3900 mg/kg
N#CC(Br)Br | 245 mg/kg
CCNC(=O)CSP(=S)(OC)OC | 125 mg/kg
CC1=CC(=O)CC(C)(C)C1 | 1500 mg/kg
CSc1nnc(C(C)(C)C)c(=O)n1N | 322 mg/kg
ClC1C(Cl)C(Cl)C(Cl)C(Cl)C1Cl (stereo not drawn) | 88 mg/kg and 100 mg/kg
C=CC(=O)OCCOC | 404 mg/kg
CC(O)C(=O)O (stereo not drawn) | 3540 mg/kg
COP(=S)(OC)SCN1C(=O)c2ccccc2C1=O | 26 mg/kg
OC[C@@H](O)[C@H](O)[C@@H](O)CO | 14100 mg/kg
CS(=O)(=O)O | 200 mg/kg
C1COCO1 | 3000 mg/kg
ClCC1CO1 (stereo not drawn) | 65 mg/kg
